From patent publication US10961231B2, “NTCP inhibitors” (National Institute of Biological Sciences, Beijing, priority 2018, dated 2021)

The compounds below were run against T1, NTCP (Homo sapiens, UniProt Q14973) (assay: [3H]-TCA uptake assay (NTCP inhibition)). Conditions: IC50, given as a range, marked * (asterisk not explained).
T1 sequence (Q14973 1-349): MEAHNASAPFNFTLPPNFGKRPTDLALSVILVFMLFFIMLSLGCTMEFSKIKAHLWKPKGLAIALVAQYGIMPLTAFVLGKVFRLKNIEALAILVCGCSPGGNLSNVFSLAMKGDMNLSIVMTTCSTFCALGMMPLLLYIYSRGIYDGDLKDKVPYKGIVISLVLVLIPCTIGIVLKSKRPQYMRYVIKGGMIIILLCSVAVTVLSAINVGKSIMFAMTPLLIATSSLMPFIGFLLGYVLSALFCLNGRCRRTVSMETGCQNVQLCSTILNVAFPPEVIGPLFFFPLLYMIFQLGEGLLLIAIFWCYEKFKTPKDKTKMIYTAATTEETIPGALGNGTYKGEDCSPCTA
Type: cell-based
Experimental: [^3H]-TCA uptake assay. PTH and HepG2-NTCP cells were cultured in PMM for 24 hours to induce NTCP expression. After treated by DMSO or test compounds for 2 hours, the cells were then incubated with 1 μM [^3H]-taurocholate acid dissolved in Na^+ Ringer's buffer (the concentration of Na was 145 mM) for 15 minutes at 37° C. Subsequently, the cells were washed once in phosphate-buffered saline (PBS) and lysed in 50 μL 1% TritonX-100 in H2O for 5 minutes at room temperature. The lysate were totally transferred into a liquid scintillation 96 well plate and mixed with 200 μL liquid scintillation cocktail (Ultima Gold XR, PerkinElmer). Liquid scintillation counting was performed on a PerkinElmer 1450 LSC liquid scintillation counter.

Structure (SMILES) | IC50 [µM]
CCC1NC(=O)C(C2OC(Sc3cccc(OCCN(C)C)c3)CC2C)N(C)C(=O)C(C(C)C)N(C)C(=O)C(CC(C)C)N(C)C(=O)C(CC(C)C)N(C)C(=O)C(C)NC(=O)C(C)NC(=O)C(CC(C)C)N(C)C(=O)C(C(C)C)NC(=O)C(CC(C)C)N(C)C(=O)CN(C)C1=O [Compound 14A, [2-((2R,3R)-5-(3-(2-(dimethylamino)ethoxy)phenylthio)-3-methyltetrahydrofuran-2-yl)-2-(methylamino)acetic acid]^1-cyclosporin A] | 1 to 100
CCC1NC(=O)C(C2OC(Oc3cccc(OCCN(C)C)c3)CC2C)N(C)C(=O)C(C(C)C)N(C)C(=O)C(CC(C)C)N(C)C(=O)C(CC(C)C)N(C)C(=O)C(C)NC(=O)C(C)NC(=O)C(CC(C)C)N(C)C(=O)C(C(C)C)NC(=O)C(CC(C)C)N(C)C(=O)CN(C)C1=O (centres unmarked) [Compound 14A-o] | 1 to 100
CCC1NC(=O)C(C2OC(Oc3cccc(OCc4ccccc4F)c3)CC2C)N(C)C(=O)C(C(C)C)N(C)C(=O)C(CC(C)C)N(C)C(=O)C(CC(C)C)N(C)C(=O)C(C)NC(=O)C(C)NC(=O)C(CC(C)C)N(C)C(=O)C(C(C)C)NC(=O)C(CC(C)C)N(C)C(=O)CN(C)C1=O (centres unmarked) [Compound 19A-o] | 1 to 100
CCC1NC(=O)C(C2OC(Oc3cccc(OCc4cccc(F)c4)c3)CC2C)N(C)C(=O)C(C(C)C)N(C)C(=O)C(CC(C)C)N(C)C(=O)C(CC(C)C)N(C)C(=O)C(C)NC(=O)C(C)NC(=O)C(CC(C)C)N(C)C(=O)C(C(C)C)NC(=O)C(CC(C)C)N(C)C(=O)CN(C)C1=O (centres unmarked) [Compound 20A-o] | 1 to 100
CCC1NC(=O)C(C2OC(Oc3cccc(OCc4ccc(F)cc4)c3)CC2C)N(C)C(=O)C(C(C)C)N(C)C(=O)C(CC(C)C)N(C)C(=O)C(CC(C)C)N(C)C(=O)C(C)NC(=O)C(C)NC(=O)C(CC(C)C)N(C)C(=O)C(C(C)C)NC(=O)C(CC(C)C)N(C)C(=O)CN(C)C1=O (centres unmarked) [Compound 21A-o] | 1 to 100

Same assay, conditions: IC50, given as a range; assay not given

Structure (SMILES) | IC50 [µM]
CCC1NC(=O)C(C2OC(Sc3cccc(OCCC4CCCN4C)c3)CC2C)N(C)C(=O)C(C(C)C)N(C)C(=O)C(CC(C)C)N(C)C(=O)C(CC(C)C)N(C)C(=O)C(C)NC(=O)C(C)NC(=O)C(CC(C)C)N(C)C(=O)C(C(C)C)NC(=O)C(CC(C)C)N(C)C(=O)CN(C)C1=O [Compound 15A, [2-((2R,3R)-3-methyl-5-(3-(2-(1-methylpyrrolidin-2-yl)ethoxy)phenylthio)tetrahydrofuran-2-yl)-2-(methylamino)acetic acid]^1-cyclosporin A] | 1 to 10

Same assay, conditions: given as a range, marked * (asterisk not explained)

Structure (SMILES) | IC50 [µM]
CCC1NC(=O)C(C2OC(Oc3cccc(OCc4ccc(CN(C)C)cc4)c3)CC2C)N(C)C(=O)C(C(C)C)N(C)C(=O)C(CC(C)C)N(C)C(=O)C(CC(C)C)N(C)C(=O)C(C)NC(=O)C(C)NC(=O)C(CC(C)C)N(C)C(=O)C(C(C)C)NC(=O)C(CC(C)C)N(C)C(=O)CN(C)C1=O (centres unmarked) [Compound 13A-o] | 1 to 100
CCC1NC(=O)C(C2OC(Oc3cccc(OCc4ccn(C)c(=O)c4)c3)CC2C)N(C)C(=O)C(C(C)C)N(C)C(=O)C(CC(C)C)N(C)C(=O)C(CC(C)C)N(C)C(=O)C(C)NC(=O)C(C)NC(=O)C(CC(C)C)N(C)C(=O)C(C(C)C)NC(=O)C(CC(C)C)N(C)C(=O)CN(C)C1=O (centres unmarked) [Compound 16A-o] | 1 to 100
CCC1NC(=O)C(C2OC(Oc3cccc(OCc4ccc(-n5cccn5)cc4)c3)CC2C)N(C)C(=O)C(C(C)C)N(C)C(=O)C(CC(C)C)N(C)C(=O)C(CC(C)C)N(C)C(=O)C(C)NC(=O)C(C)NC(=O)C(CC(C)C)N(C)C(=O)C(C(C)C)NC(=O)C(CC(C)C)N(C)C(=O)CN(C)C1=O (centres unmarked) [Compound 17A-o] | 1 to 100
CCC1NC(=O)C(C2OC(Oc3cccc(OCc4ccc5c(c4)OCO5)c3)CC2C)N(C)C(=O)C(C(C)C)N(C)C(=O)C(CC(C)C)N(C)C(=O)C(CC(C)C)N(C)C(=O)C(C)NC(=O)C(C)NC(=O)C(CC(C)C)N(C)C(=O)C(C(C)C)NC(=O)C(CC(C)C)N(C)C(=O)CN(C)C1=O (centres unmarked) [Compound 18A-o] | 1 to 100
CCC1NC(=O)C(C2OC(Oc3cccc(OCc4ccc(F)c(Cl)c4)c3)CC2C)N(C)C(=O)C(C(C)C)N(C)C(=O)C(CC(C)C)N(C)C(=O)C(CC(C)C)N(C)C(=O)C(C)NC(=O)C(C)NC(=O)C(CC(C)C)N(C)C(=O)C(C(C)C)NC(=O)C(CC(C)C)N(C)C(=O)CN(C)C1=O (centres unmarked) [Compound 22A-o] | 1 to 100

Same assay, conditions: given as a range; assay not given

Structure (SMILES) | IC50 [µM]
CCC1NC(=O)C(C2OC(Sc3cccc(OCc4ccccc4)c3)CC2C)N(C)C(=O)C(C(C)C)N(C)C(=O)C(CC(C)C)N(C)C(=O)C(CC(C)C)N(C)C(=O)C(C)NC(=O)C(C)NC(=O)C(CC(C)C)N(C)C(=O)C(C(C)C)NC(=O)C(CC(C)C)N(C)C(=O)CN(C)C1=O [Compound 12A, [2-((2R,3R)-5-(3-(benzyloxy)phenylthio)-3-methyltetrahydrofuran-2-yl)-2-(methylamino)acetic acid]^1-cyclosporin A] | 0.001 to 1
CCC1NC(=O)C(C2OC(Sc3cccc(OCc4ccc(CN(C)C)cc4)c3)CC2C)N(C)C(=O)C(C(C)C)N(C)C(=O)C(CC(C)C)N(C)C(=O)C(CC(C)C)N(C)C(=O)C(C)NC(=O)C(C)NC(=O)C(CC(C)C)N(C)C(=O)C(C(C)C)NC(=O)C(CC(C)C)N(C)C(=O)CN(C)C1=O [Compound 13A, [2-((2R,3R)-5-(3-(4-((dimethylamino)methyl)benzyloxy)phenylthio)-3-methyltetrahydrofuran-2-yl)-2-(methylamino)acetic acid]^1-cyclosporin A] | 0.001 to 1
CCC1NC(=O)C(C2OC(Sc3cccc(OCc4ccn(C)c(=O)c4)c3)CC2C)N(C)C(=O)C(C(C)C)N(C)C(=O)C(CC(C)C)N(C)C(=O)C(CC(C)C)N(C)C(=O)C(C)NC(=O)C(C)NC(=O)C(CC(C)C)N(C)C(=O)C(C(C)C)NC(=O)C(CC(C)C)N(C)C(=O)CN(C)C1=O [Compound 16A, [2-((2R,3R)-3-methyl-5-(3-((1-methyl-2-oxo-1,2-dihydropyridin-4-yl)methoxy)phenylthio)tetrahydrofuran-2-yl)-2-(methylamino)acetic acid]^1-cyclosporin A] | 1 to 10
CCC1NC(=O)C(C2OC(Sc3cccc(OCc4ccc5c(c4)OCO5)c3)CC2C)N(C)C(=O)C(C(C)C)N(C)C(=O)C(CC(C)C)N(C)C(=O)C(CC(C)C)N(C)C(=O)C(C)NC(=O)C(C)NC(=O)C(CC(C)C)N(C)C(=O)C(C(C)C)NC(=O)C(CC(C)C)N(C)C(=O)CN(C)C1=O [Compound 18A, [2-((2R,3R)-5-(3-(benzo[d][1,3]dioxol-5-ylmethoxy)phenylthio)-3-methyltetrahydrofuran-2-yl)-2-(methylamino)acetic acid]^1-cyclosporin A] | 0.001 to 1
CCC1NC(=O)C(C2OC(Sc3cccc(OCc4ccccc4F)c3)CC2C)N(C)C(=O)C(C(C)C)N(C)C(=O)C(CC(C)C)N(C)C(=O)C(CC(C)C)N(C)C(=O)C(C)NC(=O)C(C)NC(=O)C(CC(C)C)N(C)C(=O)C(C(C)C)NC(=O)C(CC(C)C)N(C)C(=O)CN(C)C1=O [Compound 19A, [2-((2R,3R)-5-(3-(2-fluorobenzyloxy)phenylthio)-3-methyltetrahydrofuran-2-yl)-2-(methylamino)acetic acid]^1-cyclosporin A] | 0.001 to 1
CCC1NC(=O)C(C2OC(Sc3cccc(OCc4cccc(F)c4)c3)CC2C)N(C)C(=O)C(C(C)C)N(C)C(=O)C(CC(C)C)N(C)C(=O)C(CC(C)C)N(C)C(=O)C(C)NC(=O)C(C)NC(=O)C(CC(C)C)N(C)C(=O)C(C(C)C)NC(=O)C(CC(C)C)N(C)C(=O)CN(C)C1=O [Compound 20A, [2-((2R,3R)-5-(3-(3-fluorobenzyloxy)phenylthio)-3-methyltetrahydrofuran-2-yl)-2-(methylamino)acetic acid]^1-cyclosporin A] | 0.001 to 1
CCC1NC(=O)C(C2OC(Sc3cccc(OCc4ccc(F)cc4)c3)CC2C)N(C)C(=O)C(C(C)C)N(C)C(=O)C(CC(C)C)N(C)C(=O)C(CC(C)C)N(C)C(=O)C(C)NC(=O)C(C)NC(=O)C(CC(C)C)N(C)C(=O)C(C(C)C)NC(=O)C(CC(C)C)N(C)C(=O)CN(C)C1=O [Compound 21A, [2-((2R,3R)-5-(3-(4-fluorobenzyloxy)phenylthio)-3-methyltetrahydrofuran-2-yl)-2-(methylamino)acetic acid]^1-cyclosporin A] | 0.001 to 1
CCC1NC(=O)C(C2OC(Sc3cccc(OCc4ccc(F)c(Cl)c4)c3)CC2C)N(C)C(=O)C(C(C)C)N(C)C(=O)C(CC(C)C)N(C)C(=O)C(CC(C)C)N(C)C(=O)C(C)NC(=O)C(C)NC(=O)C(CC(C)C)N(C)C(=O)C(C(C)C)NC(=O)C(CC(C)C)N(C)C(=O)CN(C)C1=O [Compound 22A, [2-((2R,3R)-5-(3-(3-chloro-4-fluorobenzyloxy)phenylthio)-3-methyltetrahydrofuran-2-yl)-2-(methylamino)acetic acid]^1-cyclosporin A] | 0.001 to 1

Same assay, conditions: given as a range; assay not given; read-out: IC50

Structure (SMILES) | IC50 [µM]
CC[C@@H]1NC(=O)[C@H]([C@@H]2OC(Sc3cccc(OCc4ccc(-n5cccn5)cc4)c3)C[C@H]2C)N(C)C(=O)[C@H](C(C)C)N(C)C(=O)[C@H](CC(C)C)N(C)C(=O)[C@H](CC(C)C)N(C)C(=O)[C@@H](C)NC(=O)[C@H](C)NC(=O)[C@H](CC(C)C)N(C)C(=O)[C@H](C(C)C)NC(=O)[C@H](CC(C)C)N(C)C(=O)CN(C)C1=O (stereo partly drawn) [Compound 17A, [2-((2R,3R)-5-(3-(4-(1H-pyrazol-1-yl)benzyloxy)phenylthio)-3-methyltetrahydrofuran-2-yl)-2-(methylamino)acetic acid]^1-cyclosporin A] | 0.001 to 1
